What all share (type): cell-based, human
The test system of one experiment is P-Akt. Put plainly: Immunoblot of P-Akt expression in capan-1 cells. The settings on record: vehicle or 0.75 μM calcitriol 24 h, then varying concentrations of gemcitabine 24 h. As for the experimental part: (§1) FIG. 4 is an immunoblot showing inhibition of survival signaling pathways in capan-1 by treatment with gemcitabine and 1,25D3. Capan-1 cells were treated 24 h with either vehicle or 0.75 μM calcitriol and then were treated with varying concentrations of gemcitabine for another 24 h. Cells were processed for immunoblotting to assess P-ErK1/2 and P-Akt expression. P-Erk1/2 was not affected by either agent alone or by the calcitriol/gemcitabine combination. […] For Western blot analysis, capan-1 cells were harvested and lysed in Triton-X100/SDS buffer as described previously ([…] et al., J. Biol. Chem. 276(33):30923-33 (2001), which is hereby incorporated by reference in its entirety). Proteins were transferred to PVDF membrane, and Western blots developed using Renaissance Enhanced Chemiluminescence Reagents (NEN Life Science Products, Boston, Mass.) or SuperSignal (Pierce, Rockford, Ill.).

The test system of a further experiment is P-Erk1/2. Nature of the experiment: Immunoblot of P-Erk1/2 expression in capan-1 cells. As to conditions: vehicle or 0.75 μM calcitriol 24 h, then varying concentrations of gemcitabine 24 h. As for the experimental part:
as §1

The next experiment concerns caspase-8. Put plainly: Caspase-8 cleavage (Western blot) and activity (colorimetric assay) in capan-1 cells. As to conditions: vehicle or 0.75 μM calcitriol 24 h, then varying concentrations of gemcitabine. How it is done:
(§2) FIG. 5 is a series of Western blots illustrating the effects of treatment with calcitriol and gemcitabine on caspase pathway induction in capan-1 cells. […] Cell lysates were prepared and analyzed by Western blot for caspase-3, caspase-6, caspase-8, and caspase-9. […] FIGS. 6A-D show quantitation of caspase-3, caspase-6, caspase-8, and caspase-9. Activity of caspase-3 (FIG. 6A), caspase-6 (FIG. 6B), caspase-8 (FIG. 6C), and caspase-9 (FIG. 6D) in capan-1 cells was measured by caspase-family colorimetric substrate assays, according to the manufacturer's protocol. Absorbance at 400 nm was determined, and the caspase activity was expressed as absorbance (ODU) per milligram of protein per reaction. […] Caspase activity was expressed as absorbance (O.D.) per milligram of protein per reaction. For Western blot analysis, capan-1 cells were harvested and lysed in Triton-X100/SDS buffer as described previously ([…] et al., J. Biol. Chem. 276(33):30923-33 (2001), which is hereby incorporated by reference in its entirety). Proteins were transferred to PVDF membrane, and Western blots developed using Renaissance Enhanced Chemiluminescence Reagents (NEN Life Science Products, Boston, Mass.) or SuperSignal (Pierce, Rockford, Ill.).

In a further experiment the test system is caspase-9. Put plainly: Caspase-9 cleavage (Western blot) and activity (colorimetric assay) in capan-1 cells. The settings on record: vehicle or 0.75 μM calcitriol 24 h, then varying concentrations of gemcitabine. How it is done:
as §2

Another experiment concerns caspase-6. Nature of the experiment: Caspase-6 cleavage (Western blot) and activity (colorimetric assay) in capan-1 cells. As to conditions: vehicle or 0.75 μM calcitriol 24 h, then varying concentrations of gemcitabine. As for the experimental part:
as §2

Entries after “also recorded” stand apart in the source; their conditions may differ.

On to `Nc1ccn([C@@H]2O[C@H](CO)[C@@H](O)C2(F)F)c(=O)n1` [gemcitabine], for which, in the experiment with P-Akt, the P-Akt levels entry is recorded as “little affected; also recorded: not affected”. In the experiment on P-Erk1/2, the P-Erk1/2 expression entry is given as “not affected”. The caspase-8 cleavage/activation result with caspase-8 is reported as “increase in the cleaved, activated form”. In the experiment with caspase-9, the caspase-9 cleavage/activation result is listed as “no significant change; also recorded: modestly increased”.
Regarding `C=C1/C(=C\C=C2/CCC[C@]3(C)[C@@H]([C@H](C)CCCC(C)(C)O)CC[C@@H]23)C[C@@H](O)C[C@@H]1O` [calcitriol, 1,25-dihydroxycholecalciferol], the P-Akt levels result in the experiment with P-Akt is reported as “modestly reduced”. The P-Erk1/2 expression result in the experiment with P-Erk1/2 is listed as “not affected”. Moreover, the caspase-8 cleavage/activation result in the experiment with caspase-8 is on record as “not cleaved at detectable levels; also recorded: no change”. Moreover, in the experiment on caspase-9, the caspase-9 cleavage/activation result is “not cleaved at detectable levels; also recorded: modestly increased”. Further, in the experiment with caspase-6, the caspase-6 cleavage/activation result is “not cleaved at detectable levels”.
